Measured values: PubChem BioAssay AID2060903 (Molecular Pharmacology Branch, DTP, NCI, 2025)

Tested on: 377384-186-R-J1-PDC complex spheroid viability
Assay: Anticancer human tumor 377384-186-R-J1-PDC patient-derived pancreatic carcinoma cell line growth inhibition [RAS]
Conditions: for IC50: curve of first compound; for viability, T/C: stronger effect = lower value
Description: RAS pathway inhibitors in Combinations in Complex Spheroids
A high-throughput screen of multi-cell type tumor spheroids was designed to identify active combinations of RAS pathway inhibitors and targeted small molecules. Complex spheroids include a stromal component modeled by human endothelial cells (HUVEC) and fibroblasts modeled by human mesenchymal stem cells (MSCs). The concentration ranges selected for each drug and investigational agent were based upon clinically achievable concentrations if the clinical Cmax of the agent was known.
Compounds. The drugs and investigational agents: abemaciclib (NSC768073), cobimetinib (NSC768068), divarasib (GDC6063, NSC841802), docetaxel (NSC628503), GDC-1971 (RLY-1971, NSC841576), gemcitabine (NSC613327), inavolisib (NSC800729), ipatasertib (NSC767898), KB-0742 (NSC834161), MRTX-1133 (NSC836407), osimertinib (NSC779217), RMC-4630 (NSC839698), RMC-6236 (NSC851965), RMC-6291 (NSC852671), Ro-3306 (NSC812927), sapanisertib (NSC764658), SN-38 (NSC673596), staurosporine (NSC755774), SY5609 (NSC837396), and tovorafenib (DAY101, NSC766906), were obtained from the National Cancer Institute (NCI) Developmental Therapeutics Program Chemical Repository. The FDA-approved anticancer drug set is available from the NCI Developmental Therapeutics Program. […] The stock solutions were prepared in dimethyl sulfoxide (DMSO, Sigma-Aldrich, St. Louis, MO, cat. D2650) at 800-fold the tested concentration and stored at -70 degrees C prior to their use. All drugs and investigational agents were tested over a range starting from a high concentration at or near the clinical Cmax and decreasing in half-log increments. If the clinical Cmax for an agent had not been determined, the highest concentration tested was 10 microM.
Cell Culture. All cells were maintained in an incubator at 37 degrees C and 5% CO2 with 95% humidity. The PDC lines were cultured according to standard operating procedures established by the NCI PDMR. All PDCs were thawed and cultured in Matrigel-coated flasks prepared with a working solution of 1X Ham's F-12 nutrient mix, without supplementation (Invitrogen, Waltham, MA, cat. 11765054), 100 U/mL penicillin-streptomycin (Invitrogen, cat. 15140122), and 2.5% Matrigel (Corning Inc., Corning, NY, cat. 354248) for the first three passages. The 362531-283-R-J2-PDC and 782815-120-R-J1-PDC lines were cultured in 6C/Colon 1B media, which includes advanced DMEM/F-12 (Thermo Fisher Scientific, cat. 12634028), 10 mM HEPES (Thermo Fisher Scientific, cat. 15630080), 1X GlutaMAX supplement (Thermo Fisher Scientific, cat. 35050061), 0.1 mg/mL primocin (InvivoGen, San Diego, CA, cat. ant-pm-2), 10% defined fetal bovine serum, heat inactivated (HyClone Laboratories Inc., Logan, UT, cat. SH30070.03HI), 50% L-WRN conditioned media (ATCC, cat. CRL-3276), 1.25 mM N-Acetyl-L-cysteine (Sigma-Aldrich, cat. A9165), 10 mM nicotinamide (Sigma-Aldrich, cat. N0636), 1X B-27 supplement (Thermo Fisher Scientific, cat. 17504044), 1X N-2 supplement (Thermo Fisher Scientific, cat. 17502048), 50 ng/mL human EGF (Thermo Fisher Scientific, cat. PHG0311), and 10 microM Y-27632 dihydrochloride (Tocris Bioscience, cat. 1254). The K12877-001-R-J1-PDC line was cultured in 6I media, which includes all 6C/Colon 1B media plus 10 ng/mL human FGF-10 (PeproTech, cat. 100-26), 1 ng/mL human FGF-2 (PeproTech, cat. 100-18B), 1 µM prostaglandin E2 (Tocris Bioscience, cat. 2296), […] hydrocortisone (Sigma-Aldrich, cat. H4001), and […] bovine insulin (Sigma-Aldrich, cat. I6634). The K86415-001-R-J1-PDC line was cultured in 6D media, which includes all 6C/Colon 1B media components minus the L-WRN conditioned media. The 485176-168-R4-J1-PDC was cultured in PANC media, which includes all 6C/Colon 1B media plus 100 ng/mL human FGF-10 (PeproTech, cat. 100-26), 500 nM SB-431542 (Selleckchem, cat. S1067), and 10 nM gastrin (Tocris Bioscience, cat. 3006). […]
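Note: spheroids exposed to compounds for seven days before readout.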

CCN1CCN(Cc2ccc(Nc3ncc(F)c(-c4cc(F)c5nc(C)n(C(C)C)c5c4)n3)nc2)CC1 + CCn1c(-c2cccnc2C(C)OC)c2c3cc(ccc31)N1CCOC(CC(NC(=O)C(C(C)C)N(C)C(=O)C3(F)CCN(C(=O)C#CC(C)(C)N(C)C)CC3)C(=O)N3CCCC(N3)C(=O)OCC(C)(C)C2)C1
IC50 (second compound 0.000949 µM): 315 nM
IC50 (second compound 0.003 µM): 222 nM
IC50 (second compound 0.00949 µM): 257 nM
IC50 (second compound 0.03 µM): 126 nM
IC50 (second compound 0.0949 µM): 178 nM
IC50 (second compound 0.3 µM): 83.7 nM
viability, T/C (second compound 0.000949 µM, first compound 0.00316 µM): 97%
viability, T/C (second compound 0.000949 µM, first compound 0.01 µM): 75.4%
viability, T/C (second compound 0.000949 µM, first compound 0.0316 µM): 68.4%
viability, T/C (second compound 0.000949 µM, first compound 0.1 µM): 65.8%
viability, T/C (second compound 0.000949 µM, first compound 0.316 µM): 46.6%
viability, T/C (second compound 0.000949 µM, first compound 1 µM): 42%
viability, T/C (second compound 0.003 µM, first compound 0.00316 µM): 96%
viability, T/C (second compound 0.003 µM, first compound 0.01 µM): 78.7%
viability, T/C (second compound 0.003 µM, first compound 0.0316 µM): 75.3%
viability, T/C (second compound 0.003 µM, first compound 0.1 µM): 54.6%
viability, T/C (second compound 0.003 µM, first compound 0.316 µM): 45.8%
viability, T/C (second compound 0.003 µM, first compound 1 µM): 41.3%
viability, T/C (second compound 0.00949 µM, first compound 0.00316 µM): 102%
viability, T/C (second compound 0.00949 µM, first compound 0.01 µM): 93.4%
viability, T/C (second compound 0.00949 µM, first compound 0.0316 µM): 65.2%
viability, T/C (second compound 0.00949 µM, first compound 0.1 µM): 60%
viability, T/C (second compound 0.00949 µM, first compound 0.316 µM): 50.2%
viability, T/C (second compound 0.00949 µM, first compound 1 µM): 43.2%
viability, T/C (second compound 0.03 µM, first compound 0.00316 µM): 81.2%
viability, T/C (second compound 0.03 µM, first compound 0.01 µM): 89.2%
viability, T/C (second compound 0.03 µM, first compound 0.0316 µM): 75.9%
viability, T/C (second compound 0.03 µM, first compound 0.1 µM): 52%
viability, T/C (second compound 0.03 µM, first compound 0.316 µM): 43%
viability, T/C (second compound 0.03 µM, first compound 1 µM): 44.5%
viability, T/C (second compound 0.0949 µM, first compound 0.00316 µM): 85%
viability, T/C (second compound 0.0949 µM, first compound 0.01 µM): 83.3%
viability, T/C (second compound 0.0949 µM, first compound 0.0316 µM): 73.9%
viability, T/C (second compound 0.0949 µM, first compound 0.1 µM): 58.8%
viability, T/C (second compound 0.0949 µM, first compound 0.316 µM): 41.3%
viability, T/C (second compound 0.0949 µM, first compound 1 µM): 34.5%
viability, T/C (second compound 0.3 µM, first compound 0.00316 µM): 75.3%
viability, T/C (second compound 0.3 µM, first compound 0.01 µM): 73%
viability, T/C (second compound 0.3 µM, first compound 0.0316 µM): 64.2%
viability, T/C (second compound 0.3 µM, first compound 0.1 µM): 48.4%
viability, T/C (second compound 0.3 µM, first compound 0.316 µM): 34.5%
viability, T/C (second compound 0.3 µM, first compound 1 µM): 35.3%

CC(C)n1nc(-c2ccc3oc(N)nc3c2)c2c(N)ncnc21
viability, T/C (compound 0.001 µM): 80.6% [middle of 4 runs]
viability, T/C (compound 0.00316 µM): 69% [middle of 4 runs]
viability, T/C (compound 0.01 µM): 61.9% [middle of 4 runs]
viability, T/C (compound 0.0316 µM): 34.8% [middle of 4 runs]

Nc1ccn(C2OC(CO)C(O)C2(F)F)c(=O)n1 (stereo not drawn) + C#Cc1c(F)ccc2cc(O)cc(-c3ncc4c(N5CC6CCC(C5)N6)nc(OCC56CCCN5CC(F)C6)nc4c3F)c12
IC50 (second compound 0.0316 µM): < 3.16 nM
IC50 (second compound 0.1 µM): < 3.16 nM
IC50 (second compound 0.316 µM): < 3.16 nM
IC50 (second compound 1 µM): < 3.16 nM
IC50 (second compound 3.16 µM): < 3.16 nM
IC50 (second compound 10 µM): < 3.16 nM
viability, T/C (second compound 0.0316 µM, first compound 0.00316 µM): 18.7%
viability, T/C (second compound 0.0316 µM, first compound 0.01 µM): 10.9%
viability, T/C (second compound 0.0316 µM, first compound 0.0316 µM): 5.1%
viability, T/C (second compound 0.0316 µM, first compound 0.1 µM): 2.32%
viability, T/C (second compound 0.0316 µM, first compound 0.316 µM): 1.53%
viability, T/C (second compound 0.0316 µM, first compound 1 µM): 1.48%
viability, T/C (second compound 0.1 µM, first compound 0.00316 µM): 10.6%
viability, T/C (second compound 0.1 µM, first compound 0.01 µM): 5.99%
viability, T/C (second compound 0.1 µM, first compound 0.0316 µM): 3.67%
viability, T/C (second compound 0.1 µM, first compound 0.1 µM): 2.25%
viability, T/C (second compound 0.1 µM, first compound 0.316 µM): 1.8%
viability, T/C (second compound 0.1 µM, first compound 1 µM): 1.59%
viability, T/C (second compound 0.316 µM, first compound 0.00316 µM): 3.96%
viability, T/C (second compound 0.316 µM, first compound 0.01 µM): 3.01%
viability, T/C (second compound 0.316 µM, first compound 0.0316 µM): 2.14%
viability, T/C (second compound 0.316 µM, first compound 0.1 µM): 1.91%
viability, T/C (second compound 0.316 µM, first compound 0.316 µM): 1.53%
viability, T/C (second compound 0.316 µM, first compound 1 µM): 1.47%
viability, T/C (second compound 1 µM, first compound 0.00316 µM): 2.36%
viability, T/C (second compound 1 µM, first compound 0.01 µM): 2.41%
viability, T/C (second compound 1 µM, first compound 0.0316 µM): 1.7%
viability, T/C (second compound 1 µM, first compound 0.1 µM): 1.46%
viability, T/C (second compound 1 µM, first compound 0.316 µM): 1.44%
viability, T/C (second compound 1 µM, first compound 1 µM): 1.36%
viability, T/C (second compound 3.16 µM, first compound 0.00316 µM): 2.1%
viability, T/C (second compound 3.16 µM, first compound 0.01 µM): 1.41%
viability, T/C (second compound 3.16 µM, first compound 0.0316 µM): 1.83%
viability, T/C (second compound 3.16 µM, first compound 0.1 µM): 1.8%
viability, T/C (second compound 3.16 µM, first compound 0.316 µM): 1.48%
viability, T/C (second compound 3.16 µM, first compound 1 µM): 1.3%
viability, T/C (second compound 10 µM, first compound 0.00316 µM): 1.37%
viability, T/C (second compound 10 µM, first compound 0.01 µM): 1.08%
viability, T/C (second compound 10 µM, first compound 0.0316 µM): 1.21%
viability, T/C (second compound 10 µM, first compound 0.1 µM): 1.3%
viability, T/C (second compound 10 µM, first compound 0.316 µM): 1.62%
viability, T/C (second compound 10 µM, first compound 1 µM): 1.15%
